Experiment [1] can be described thus: Cytotoxicity against human G-292 Clone A141B1 cells assessed as fraction of viable cells after 72 hrs relative to control. Type of experiment: functional.
A short description of experiment [2]: Cytotoxicity against human Hs 707(A).T cells assessed as fraction of viable cells after 72 hrs relative to control. Type of experiment: functional.
The subject of experiment [3] is MG-63. As to the kind of experiment: Cytotoxicity against human MG63 cells assessed as fraction of viable cells after 72 hrs relative to control. Type of experiment: functional.
Experiment [4] relates to SNU-5. The experiment is described as follows: Cytotoxicity against human SNU5 cells assessed as fraction of viable cells after 72 hrs relative to control. Type of experiment: functional.
For experiment [5], the system named is SNU1. The experiment is described as follows: Cytotoxicity against human SNU1 cells assessed as fraction of viable cells after 72 hrs relative to control. It counts as functional.
The test system of experiment [6] is IMR-90. As to the kind of experiment: Cytotoxicity against human IMR90 cells assessed as fraction of viable cells after 72 hrs relative to control. Type of experiment: functional.
The nature of experiment [7]: Inhibition of PDGF.
A short description of experiment [8]: Inhibition of Mek.
The target in experiment [9] is T1, Vascular endothelial growth factor receptor 2 (Homo sapiens, UniProt P35968).
Description: Inhibition of VEGFR2 by cellular assay
Experiment [10] deals with ALK tyrosine kinase receptor (Homo sapiens, UniProt Q9UM73).
Description: Inhibition of ALK by cellular assay
Experiment [11] concerns the target Ephrin type-B receptor 4 (Homo sapiens, UniProt P54760). As to the kind of experiment: Inhibition of EphB4 by cellular assay.
Experiment [12] has as its target Fibroblast growth factor receptor 3 (Homo sapiens, UniProt P22607).
Experiment [13] has as its target Receptor-type tyrosine-protein kinase FLT3 (Homo sapiens, UniProt P36888).
Description: Inhibition of FLT3 by cellular assay
Experiment [14] has as its target Tyrosine-protein kinase Lck (Homo sapiens, UniProt P06239).
Description: Inhibition of Lck by cellular assay
Experiment [15] concerns the target Insulin receptor (Homo sapiens, UniProt P06213).
Description: Inhibition of InsR by cellular assay
In experiment [16] the target is Proto-oncogene tyrosine-protein kinase receptor Ret (Homo sapiens, UniProt P07949).
Description: Inhibition of Ret by cellular assay
Experiment [17] addresses Macrophage-stimulating protein receptor (Homo sapiens, UniProt Q04912).
Experiment [18] concerns the target High affinity nerve growth factor receptor (Homo sapiens, UniProt P04629).
Experiment [19] concerns the target Platelet-derived growth factor receptor beta (Homo sapiens, UniProt P09619).
Description: Inhibition of PDGFRbeta by cellular assay
Experiment [20] is described as follows: cells.
Description: Inhibition of Bcr-abl by cellular assay
In experiment [21] the target is Angiopoietin-1 receptor (Homo sapiens, UniProt Q02763).
Description: Inhibition of Tie2 by cellular assay
The target in experiment [22] is Platelet-derived growth factor receptor alpha (Homo sapiens, UniProt P16234).
Description: Inhibition of PDGFRalpha by cellular assay
Experiment [23] concerns the target T1, Vascular endothelial growth factor receptor 2. The source holds these as a separate data set.
Description: Inhibition of KDR by cellular assay
Experiment [24] concerns the target Proto-oncogene tyrosine-protein kinase Src (Homo sapiens, UniProt P12931). The experiment is described as follows: Inhibition of Src by cellular assay. Type of experiment: functional.
The target of experiment [25] is Tyrosine-protein kinase ZAP-70 (Homo sapiens, UniProt P43403). As to the kind of experiment: Inhibition of ZAP70 by cellular assay.
Experiment [26] deals with Fibroblast growth factor receptor 1 (Homo sapiens, UniProt P11362).
Description: Inhibition of FGFR1 by cellular assay
For experiment [27], the target named is Hepatocyte growth factor receptor (Homo sapiens, UniProt P08581). The experiment is described as follows: Inhibition of Met by cellular assay.
In experiment [28] the target is Mast/stem cell growth factor receptor Kit (Homo sapiens, UniProt P10721).
Description: Inhibition of c-Kit by cellular assay
Experiment [29] concerns the target Ephrin type-A receptor 3 (Homo sapiens, UniProt P29320). As to the kind of experiment: Inhibition of EphA3 by cellular assay.
Experiment [30] deals with Non-receptor tyrosine-protein kinase TYK2 (Homo sapiens, UniProt P29597). The experiment is described as follows: Inhibition of Tyk2 by cellular assay.
Experiment [31] deals with Vascular endothelial growth factor receptor 1 (Homo sapiens, UniProt P17948).
Description: Inhibition of Flt1 by cellular assay

Structures are written as SMILES.

T1 sequence (P35968 whole entry): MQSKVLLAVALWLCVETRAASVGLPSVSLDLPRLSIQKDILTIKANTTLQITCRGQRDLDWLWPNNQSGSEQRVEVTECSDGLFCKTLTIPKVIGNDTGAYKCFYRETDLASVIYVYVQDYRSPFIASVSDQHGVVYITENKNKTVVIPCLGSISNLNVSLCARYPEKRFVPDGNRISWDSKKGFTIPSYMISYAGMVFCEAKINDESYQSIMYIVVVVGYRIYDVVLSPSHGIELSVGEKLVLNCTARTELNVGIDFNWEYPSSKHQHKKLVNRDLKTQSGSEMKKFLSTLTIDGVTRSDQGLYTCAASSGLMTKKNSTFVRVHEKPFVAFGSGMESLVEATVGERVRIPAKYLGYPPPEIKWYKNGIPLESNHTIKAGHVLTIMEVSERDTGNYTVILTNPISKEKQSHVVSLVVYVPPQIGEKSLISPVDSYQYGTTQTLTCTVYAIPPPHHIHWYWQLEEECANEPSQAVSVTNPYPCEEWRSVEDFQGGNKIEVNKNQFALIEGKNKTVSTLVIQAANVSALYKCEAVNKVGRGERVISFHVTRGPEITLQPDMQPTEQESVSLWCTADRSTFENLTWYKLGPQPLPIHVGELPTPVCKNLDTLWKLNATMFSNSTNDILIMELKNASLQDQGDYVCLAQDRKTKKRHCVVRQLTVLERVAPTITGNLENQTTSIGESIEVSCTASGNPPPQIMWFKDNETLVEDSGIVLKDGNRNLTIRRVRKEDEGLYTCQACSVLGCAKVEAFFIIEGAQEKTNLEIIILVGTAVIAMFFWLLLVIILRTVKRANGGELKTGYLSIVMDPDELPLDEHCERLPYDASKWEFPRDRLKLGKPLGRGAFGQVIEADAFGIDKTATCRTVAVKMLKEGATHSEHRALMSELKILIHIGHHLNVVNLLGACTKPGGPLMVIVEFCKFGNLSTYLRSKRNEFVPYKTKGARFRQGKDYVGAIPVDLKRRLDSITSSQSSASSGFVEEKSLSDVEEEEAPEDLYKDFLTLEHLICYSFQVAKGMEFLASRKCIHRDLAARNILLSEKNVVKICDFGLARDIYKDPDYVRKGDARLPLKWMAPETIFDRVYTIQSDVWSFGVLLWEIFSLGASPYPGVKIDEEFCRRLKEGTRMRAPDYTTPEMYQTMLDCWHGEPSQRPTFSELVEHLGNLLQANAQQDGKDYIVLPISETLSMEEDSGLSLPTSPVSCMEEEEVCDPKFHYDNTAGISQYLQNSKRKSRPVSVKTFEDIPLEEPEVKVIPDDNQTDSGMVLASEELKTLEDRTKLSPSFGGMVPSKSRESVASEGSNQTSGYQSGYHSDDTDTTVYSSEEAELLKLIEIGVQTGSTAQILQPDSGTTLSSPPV
Chain of High affinity nerve growth factor receptor (P04629 whole entry): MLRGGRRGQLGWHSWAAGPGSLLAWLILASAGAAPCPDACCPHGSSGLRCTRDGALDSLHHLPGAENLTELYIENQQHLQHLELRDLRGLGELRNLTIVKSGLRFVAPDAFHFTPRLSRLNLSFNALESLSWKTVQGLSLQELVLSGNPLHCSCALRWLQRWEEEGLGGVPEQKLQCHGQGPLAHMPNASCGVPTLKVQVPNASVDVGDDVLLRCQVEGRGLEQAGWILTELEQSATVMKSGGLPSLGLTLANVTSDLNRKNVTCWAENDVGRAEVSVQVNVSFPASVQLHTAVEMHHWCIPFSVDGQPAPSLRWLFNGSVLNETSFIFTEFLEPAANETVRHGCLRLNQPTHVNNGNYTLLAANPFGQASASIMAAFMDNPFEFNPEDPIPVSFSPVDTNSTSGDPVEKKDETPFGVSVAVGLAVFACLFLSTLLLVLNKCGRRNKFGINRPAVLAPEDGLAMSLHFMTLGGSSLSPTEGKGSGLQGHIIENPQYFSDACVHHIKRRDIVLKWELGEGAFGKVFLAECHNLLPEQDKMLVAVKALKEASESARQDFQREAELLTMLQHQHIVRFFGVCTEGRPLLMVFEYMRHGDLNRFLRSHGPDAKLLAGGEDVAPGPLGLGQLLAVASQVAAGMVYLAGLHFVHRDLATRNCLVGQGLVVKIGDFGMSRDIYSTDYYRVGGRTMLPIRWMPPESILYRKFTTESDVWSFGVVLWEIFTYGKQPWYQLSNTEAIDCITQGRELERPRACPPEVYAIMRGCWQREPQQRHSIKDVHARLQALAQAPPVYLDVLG
Chain of ALK tyrosine kinase receptor (Q9UM73 whole entry): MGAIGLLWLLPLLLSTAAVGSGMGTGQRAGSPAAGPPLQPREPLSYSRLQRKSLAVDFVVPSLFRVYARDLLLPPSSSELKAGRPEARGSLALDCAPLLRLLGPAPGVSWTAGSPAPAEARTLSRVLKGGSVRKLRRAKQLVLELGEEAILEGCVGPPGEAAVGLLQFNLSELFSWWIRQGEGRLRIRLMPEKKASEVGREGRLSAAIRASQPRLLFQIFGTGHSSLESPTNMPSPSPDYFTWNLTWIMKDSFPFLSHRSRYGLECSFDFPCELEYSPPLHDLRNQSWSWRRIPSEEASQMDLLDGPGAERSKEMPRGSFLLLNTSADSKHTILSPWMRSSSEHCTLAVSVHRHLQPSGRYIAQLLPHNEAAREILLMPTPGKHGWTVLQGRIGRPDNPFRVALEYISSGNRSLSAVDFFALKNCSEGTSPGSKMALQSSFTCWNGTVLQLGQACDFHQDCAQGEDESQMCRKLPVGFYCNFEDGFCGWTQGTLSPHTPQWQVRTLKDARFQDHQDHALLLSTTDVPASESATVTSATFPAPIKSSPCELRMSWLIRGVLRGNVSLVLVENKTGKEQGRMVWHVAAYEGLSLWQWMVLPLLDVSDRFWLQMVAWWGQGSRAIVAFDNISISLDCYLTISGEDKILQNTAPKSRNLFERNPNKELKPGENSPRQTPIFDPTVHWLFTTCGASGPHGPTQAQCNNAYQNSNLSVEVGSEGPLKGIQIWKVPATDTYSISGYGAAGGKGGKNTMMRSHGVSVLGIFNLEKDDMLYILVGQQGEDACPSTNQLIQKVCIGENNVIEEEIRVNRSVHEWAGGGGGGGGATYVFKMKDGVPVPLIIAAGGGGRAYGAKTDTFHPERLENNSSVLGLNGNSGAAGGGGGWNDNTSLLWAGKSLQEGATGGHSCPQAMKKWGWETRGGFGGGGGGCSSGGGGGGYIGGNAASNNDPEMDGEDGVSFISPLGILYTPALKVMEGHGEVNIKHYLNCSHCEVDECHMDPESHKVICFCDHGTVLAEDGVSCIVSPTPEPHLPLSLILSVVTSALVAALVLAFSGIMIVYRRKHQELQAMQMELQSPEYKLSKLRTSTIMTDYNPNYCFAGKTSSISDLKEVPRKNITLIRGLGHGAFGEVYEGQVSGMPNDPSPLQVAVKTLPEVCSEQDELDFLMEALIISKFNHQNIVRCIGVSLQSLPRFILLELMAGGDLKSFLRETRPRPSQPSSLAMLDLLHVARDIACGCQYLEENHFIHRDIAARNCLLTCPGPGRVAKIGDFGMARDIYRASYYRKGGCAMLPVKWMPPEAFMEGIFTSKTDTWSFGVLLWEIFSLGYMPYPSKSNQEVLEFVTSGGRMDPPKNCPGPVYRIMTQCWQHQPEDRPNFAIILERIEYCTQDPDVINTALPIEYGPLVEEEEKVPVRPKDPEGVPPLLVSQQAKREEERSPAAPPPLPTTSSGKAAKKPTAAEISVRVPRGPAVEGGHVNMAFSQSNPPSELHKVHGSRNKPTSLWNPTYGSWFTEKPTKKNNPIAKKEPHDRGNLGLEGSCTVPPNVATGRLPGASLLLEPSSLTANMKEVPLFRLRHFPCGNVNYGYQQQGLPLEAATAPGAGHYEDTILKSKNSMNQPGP
Chain of Platelet-derived growth factor receptor beta (P09619 whole entry): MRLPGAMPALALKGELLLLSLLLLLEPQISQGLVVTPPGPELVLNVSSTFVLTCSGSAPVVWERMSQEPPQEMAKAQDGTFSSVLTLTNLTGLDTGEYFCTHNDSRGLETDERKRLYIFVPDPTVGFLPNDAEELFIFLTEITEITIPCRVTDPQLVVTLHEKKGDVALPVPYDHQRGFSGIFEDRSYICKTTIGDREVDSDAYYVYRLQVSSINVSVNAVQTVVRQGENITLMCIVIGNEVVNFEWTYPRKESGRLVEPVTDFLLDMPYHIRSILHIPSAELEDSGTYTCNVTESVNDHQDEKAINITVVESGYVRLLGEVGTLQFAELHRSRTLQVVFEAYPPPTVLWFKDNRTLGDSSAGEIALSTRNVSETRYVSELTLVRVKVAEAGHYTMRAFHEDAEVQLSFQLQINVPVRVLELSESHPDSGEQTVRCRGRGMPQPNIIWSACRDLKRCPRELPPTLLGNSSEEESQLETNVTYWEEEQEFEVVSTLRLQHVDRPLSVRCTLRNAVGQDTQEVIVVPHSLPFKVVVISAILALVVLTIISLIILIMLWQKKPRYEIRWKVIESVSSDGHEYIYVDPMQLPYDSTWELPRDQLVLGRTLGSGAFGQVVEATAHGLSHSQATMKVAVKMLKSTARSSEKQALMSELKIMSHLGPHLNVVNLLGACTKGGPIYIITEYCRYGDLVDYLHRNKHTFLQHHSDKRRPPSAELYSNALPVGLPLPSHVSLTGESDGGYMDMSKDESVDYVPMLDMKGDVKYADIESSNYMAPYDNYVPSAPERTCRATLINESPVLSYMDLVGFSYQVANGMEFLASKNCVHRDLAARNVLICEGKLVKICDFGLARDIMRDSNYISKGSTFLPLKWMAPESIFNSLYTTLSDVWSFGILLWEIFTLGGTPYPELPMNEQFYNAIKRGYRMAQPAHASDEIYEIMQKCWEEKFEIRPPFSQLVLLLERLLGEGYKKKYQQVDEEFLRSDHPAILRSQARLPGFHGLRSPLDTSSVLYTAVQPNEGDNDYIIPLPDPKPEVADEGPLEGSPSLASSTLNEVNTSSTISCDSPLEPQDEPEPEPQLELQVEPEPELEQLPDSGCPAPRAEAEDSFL

On to `CC#CC(=O)Nc1ccc2ncnc(Nc3cccc(Br)c3)c2c1`, for which the Activity in experiment [1] was 1.024; in [2], 1.31; in experiment [3], 0.97; in experiment [4], 1.244; in experiment [5], 1.135; in experiment [6], 0.854.
By IC50 is commonly meant the concentration needed to halve the response being measured. In general, EC50 refers to the concentration at which the effect is half-maximal. Lower therefore signals greater potency. `CCN(CC)CCCCNc1ncc2cc(-c3cc(OC)cc(OC)c3)c(NC(=O)NC(C)(C)C)nc2n1` [PD-173074]: the IC50 in experiment [7] was 19000 nM; in [8], > 50000 nM. This compound also showed an EC50 in [9] of 250 nM.
Regarding `Cc1ccc(NC(=O)c2cccc(C(F)(F)F)c2)cc1N1Cc2cnc(N)nc2N(C)C1=O`, the EC50 in experiment [10] was > 2000 nM; in experiment [11] it was 4 nM; in [13], > 2000 nM; in [14], 5 nM; in [15] it was > 2000 nM; in [16], 77 nM. Moreover, the EC50 in experiment [17] was > 2000 nM; in [18], > 2000 nM; in experiment [19], 6 nM; in [20], 3 nM; in [21], 200 nM; in [22], 4 nM. Further, the EC50 in [23] was 22 nM; in experiment [24] it was 13 nM; in [25], > 2000 nM; in [26], 80 nM; in [27] it was > 2000 nM; in experiment [28] it was 4 nM. In addition, the EC50 is 2 nM in [29], > 2000 nM in [30] and 236 nM in experiment [31]. This compound came in with an IC50 in experiment [12] of 13 nM.

The record behind these values is ChEMBL document CHEMBL1149823, “Identification of genotype-correlated sensitivity to selective kinase inhibitors by using high-throughput tumor cell line profiling” (Proc Natl Acad Sci U S A, 2007).
